Source: the NIST ThermoML archive (doi:10.1021/je050367p)

Assay: xn = mol fraction of the nth substance listed
Settings: 100.8 kPa, Liquid; for viscosity: Capillary tube (Ostwald / Ubbelohde) method

CC(C)OC(C)C [diisopropyl ether] + CC(C)CC(C)(C)C
Settings	mass density, 288.15 K [kg/m3]	mass density, 298.15 K [kg/m3]	viscosity, 288.15 K [mPa·s]	viscosity, 298.15 K [mPa·s]	viscosity, 308.15 K [mPa·s]
x1 = 0.05	697.2	688.86	0.523	0.468	0.422
x1 = 0.1	698.46	690.03	0.511	0.456	0.412
x1 = 0.15	699.73	691.23	0.498	0.445	0.402
x1 = 0.2	701.06	692.45	0.486	0.435	0.393
x1 = 0.25	702.44	693.75	0.474	0.425	0.384
x1 = 0.3	703.86	695.08	0.463	0.415	0.375
x1 = 0.35	705.33	696.43	0.452	0.406	0.367
x1 = 0.4	706.84	697.84	0.442	0.397	0.359
x1 = 0.45	708.37	699.26	0.432	0.388	0.351
x1 = 0.5	709.97	700.76	0.423	0.38	0.343
x1 = 0.55	711.64	702.32	0.414	0.372	–
x1 = 0.6	713.36	703.94	0.405	0.364	–
x1 = 0.65	715.15	705.61	0.397	0.357	–
x1 = 0.7	716.97	707.32	0.389	0.35	–
x1 = 0.75	718.85	709.08	0.382	0.343	–
x1 = 0.8	720.8	710.9	0.375	0.337	–
x1 = 0.85	722.8	712.78	0.368	0.33	–
x1 = 0.9	724.9	714.75	0.361	0.325	–
x1 = 0.9499	727	716.73	0.354	0.319	–
x1 = 1	729.09	718.7	0.348	0.313	–
